Here are results for four molecules from patent US6831086B1, “Process for the inactivation of viruses with the aid of acridine derivatives” (ZLB Behring GmbH, priority 1994, dated 2004).

For experiment [1], the system named is envelope-containing and nonenveloped virus species. The class given is cell-based.
The next experiment has as its system BPV. Kind of experiment: Inactivation of BPV, infectiousness titration. The class given is cell-based, Bovine parvovirus. The following applies: for Virus inactivation: BPV, 45° C.
A further experiment concerns Haemate ® Factor VIII. In words: Clotting activity of Haemate after virus inactivation. The note with it: for Activity (clotting activity): Haemate ® Factor VIII, 3 hours 37° C. The class given is biochemical.
The test system of another experiment is PPV. Kind of experiment: Inactivation of PPV, infectiousness titration. The class given is cell-based, Porcine parvovirus.
A further experiment has as its system PI3 virus. In words: Inactivation of PI3 virus, infectiousness titration. The class given is cell-based, Bovine parainfluenza 3 virus. The note with it: 37° C.; for Virus inactivation: EME medium.
In a further experiment the target is Beriplex ® Factor II (Homo sapiens, UniProt P00734). In words: Clotting activity of Beriplex after virus inactivation. The following applies: 3 hours 37° C. The class given is biochemical.
For another experiment, the system named is CPV. In words: Inactivation of CPV in protein solutions, infectiousness titration. The class given is cell-based, Canine parvovirus. The following applies: Acriflavine 0.001 mg/ml.
For a further experiment, the system named is BVDV. In words: Inactivation of BVDV, infectiousness titration. The class given is cell-based, Bovine viral diarrhoea virus. The following applies: Venimmun + BVDV; Acriflavine 0.001 mg/ml; 37° C.; 3 h.
The test system of a further experiment is IBRV. Kind of experiment: Inactivation of IBRV, infectiousness titration. The class given is cell-based, Infectious bovine rhinotracheitis virus. The note with it: for Titer reduction / Treatment titer: 45° C.
[2] abbreviates: Beriplex + PPV, BACI 0.001 mg/ml, 30° C., 0 h.
[3] abbreviates: Beriplex + PPV, BACI 0.001 mg/ml, 30° C., 1 h.
The mark [4] stands for this setting: Beriplex + PPV, BACI 0.001 mg/ml, 30° C., 2 h.
Setting [5] is: Beriplex + PPV, BACI 0.001 mg/ml, 30° C., 3 h.
Setting [6] is: Beriplex + PPV, BACI 0.01 mg/ml, 37° C., 0 h.
[7] abbreviates: Beriplex + PPV, BACI 0.01 mg/ml, 37° C., 1 h.
The mark [8] stands for this setting: Beriplex + PPV, BACI 0.01 mg/ml, 37° C., 2 h.
Where [9] appears, read: Beriplex + PPV, BACI 0.01 mg/ml, 37° C., 3 h.
[10] abbreviates: Beriplex + PPV, Acriflavine 0.001 mg/ml, 30° C., 0 h.
Where [11] appears, read: Beriplex + PPV, Acriflavine 0.001 mg/ml, 30° C., 1 h.
Setting [12] is: Beriplex + PPV, Acriflavine 0.001 mg/ml, 30° C., 2 h.
[13] abbreviates: Beriplex + PPV, Acriflavine 0.001 mg/ml, 30° C., 3 h.
Setting [14] is: Beriplex + PPV, Acriflavine 0.001 mg/ml, 37° C., 3 h.
Where [15] appears, read: Haemate + PPV, Acriflavine 0.001 mg/ml, 37° C., 3 h.

Regarding Benzalkonium chloride [BACI], the “Virus species inactivated, in words” value in experiment [1] is “only envelope-containing viruses can be, inactivated”. Moreover, the Virus inactivation with BPV (BACI 0.01 mg/ml, 1 hour) is given as 0 log10/ml; in the experiment on BPV (BACI 0.01 mg/ml, 2 hours), 0 log10/ml; with BPV (BACI 0.05 mg/ml, 1 hour), 0 log10/ml; with BPV (BACI 0.05 mg/ml, 2 hours), 0 log10/ml; in the experiment with PI3 virus (BACI 0.005 mg/ml, 0-0.03 h), “≧5.9 log10/ml”; in the experiment on PI3 virus (BACI 0.0125 mg/ml, 0-0.03 h), 0.5 log10/ml. The Virus inactivation in the experiment on PI3 virus (BACI 0.0125 mg/ml, 1 h) is listed as 1.3 log10/ml; in the experiment with PI3 virus (BACI 0.025 mg/ml, 0-0.03 h) it was 1.4 log10/ml; in the experiment with PI3 virus (BACI 0.025 mg/ml, 1 h), “≧5.3 log10/ml”; in the experiment with PI3 virus (BACI 0.05 mg/ml, 1 h), “≧5.3 log10/ml”; with PI3 virus (BACI 0.1 mg/ml, 0-0.03 h) it was “≧5.9 log10/ml”; in the experiment on PI3 virus (BACI 0.1 mg/ml, 1 h) it was “≧5.3 log10/ml”. In the experiment on BPV (test conditions of Table 2, 45° C., 1 or 2 hours), the “Inactivation of BPV, in words” value is “not inactivated”. Also, the “Activity (clotting activity)” value in the experiment with Haemate ® Factor VIII (BACI 0.02 mg/ml) was found to be 20.7 IU/ml; at Beriplex ® Factor II (BACI 0.02 mg/ml), 61.3 IU/ml. Besides, the Titer reduction in the experiment with PPV (setting [2]), in the experiment with PPV (setting [3]), in the experiment on PPV (setting [4]), in the experiment with PPV (setting [5]), with PPV (setting [6]) and in the experiment with PPV (setting [7]) was 0 log10/ml each time. Also, the Titer reduction is listed as 0 log10/ml in the experiment on PPV (setting [8]) and 0.2 log10/ml in the experiment on PPV (setting [9]). The Treatment titer with PPV (setting [2]) was 4.8 log10/ml; in the experiment on PPV (setting [3]) it was 4.8 log10/ml; in the experiment on PPV (setting [4]) it was 4.8 log10/ml; in the experiment on PPV (setting [5]) it was 4.6 log10/ml; in the experiment with PPV (setting [6]), 4.8 log10/ml; in the experiment on PPV (setting [7]), 4.6 log10/ml. In addition, the Treatment titer in the experiment with PPV (setting [8]) and in the experiment with PPV (setting [9]) was 4.6 log10/ml in each case. Also, in the experiment on PI3 virus (high doses of BACI (0.1 mg/ml, 0.05 mg/ml), time needed to mix, sample and titrate), the “Inactivation of PI3 virus, in words” value was “infectious virus was no longer detectable”.

As to “3,6-diamino-10-methylacridinium, chloride and 3,6-acridineidiamine [Acriflavine]”, the Titer reduction is on record as 3.5 log10/ml in the experiment with CPV (FCS + CPV, 37° C., 3 h); 0 log10/ml in the experiment on CPV (FCS + CPV, 45° C., 0 h); 2.0 log10/ml with CPV (FCS + CPV, 45° C., 1 h); 3.3 log10/ml in the experiment on CPV (FCS + CPV, 45° C., 2 h); 4.2 log10/ml with CPV (FCS + CPV, 45° C., 3 h); 3.0 log10/ml in the experiment on CPV (Venimmun + CPV, 37° C., 3 h). Moreover, the Titer reduction entry was “≧6.0 log10/ml” with BVDV; 0 log10/ml with PPV (setting [10]); 1.0 log10/ml in the experiment on PPV (setting [11]); 1.7 log10/ml in the experiment on PPV (setting [12]); “≧3.3 log10/ml” in the experiment with PPV (setting [13]); “≧3.3 log10/ml” in the experiment on PPV (setting [14]). For the same molecule, the Titer reduction result with PPV (setting [15]) is given as “≧3.8 log10/ml”. Besides, the Treatment titer in the experiment on CPV (FCS + CPV, 37° C., 3 h) is 3.4 log10/ml; in the experiment on CPV (FCS + CPV, 45° C., 0 h) it was 6.8 log10/ml; in the experiment on CPV (FCS + CPV, 45° C., 1 h), 4.8 log10/ml; in the experiment with CPV (FCS + CPV, 45° C., 2 h), 3.5 log10/ml; in the experiment on CPV (FCS + CPV, 45° C., 3 h), 2.8 log10/ml; with CPV (Venimmun + CPV, 37° C., 3 h), 3.9 log10/ml. For the same molecule, the Treatment titer with BVDV is reported as 0 log10/ml; in the experiment with PPV (setting [10]) it was 4.8 log10/ml; in the experiment on PPV (setting [11]), 3.6 log10/ml; with PPV (setting [12]), 2.9 log10/ml; in the experiment on PPV (setting [13]), “≦1.5 log10/ml”; in the experiment on PPV (setting [14]), “≦1.5 log10/ml”. In addition, the Treatment titer entry with PPV (setting [15]) is listed as “≦1.5 log10/ml”. In addition, the “Activity (clotting activity)” value with Haemate ® Factor VIII (A 0.001 mg/ml) worked out at 16.8 IU/ml; in the experiment on Haemate ® Factor VIII (A 0.002 mg/ml) it was 18.9 IU/ml; on Beriplex ® Factor II (A 0.001 mg/ml), 50.0 IU/ml; on Beriplex ® Factor II (A 0.002 mg/ml) it was 48.8 IU/ml. The Virus inactivation in the experiment with IBRV (37° C., 2 hours) stood at 3.3 log10/ml.

In the case of `CCOc1ccc2nc3cc(N)ccc3c(N)c2c1` [Ethacridine lactate], the Titer reduction was 0 log10/ml in the experiment with IBRV (0 h), 3.7 log10/ml with IBRV (1 h) and “≧2.8 log10/ml” in the experiment with IBRV (2 h). For the same molecule, the Treatment titer is given as 6.5 log10/ml with IBRV (0 h), 2.0 log10/ml in the experiment with IBRV (1 h) and “≦1.5 log10/ml” with IBRV (2 h).

“Haemate®: Concentrate from clotting factor VIII and Von-Willebrand factor, pasteurized (Behringwerke AG)”: in the experiment on Haemate ® Factor VIII (Table 7), the “Activity decrease of clotting preparation after acridines/benzalkonium chloride inactivation, in words” value is recorded as “tolerable”.
